Source: patent publication US12653788B2, “Pharmaceutical composition of a pyrazole compound dispersed in a polymer matrix” (Intervet Inc., priority 2019, dated 2026)

Key:
[1] = Oral bioavailability of the compound in dogs; settings: dog, in vivo
Method: (§1) The poor water solubility results in poor oral bioavailability in dogs, often below 50%. The log P of the compound of Formula (I) is calculated to be 1.25 (Chem Draw and Insight for Excel). To increase solubilization and promote bioavailability, Applicants have dosed the compound in the amorphous state as part of an amorphous solid dispersion (ASD). […] Therefore, the ASD was manufactured by co-precipitation or cPAD (co-precipitated amorphous dispersion). In this process, the compound and a polymer were dissolved into a solvent. The compound-polymer solution was then rapidly precipitated in an anti-solvent under high shear in a rotor-stator homogenizer. and the compound-polymer amorphous solid dispersion was formed.

cIL-31 induced pruritus = settings: with respect to placebo, similar magnitude to oclacitinib (Apoquel); cited from earlier work
[2] = Solubility of the compound (water, volatile solvents); assay type: physicochemical
Method: as §1

[3] = In vitro anti-nucleating polymer screen in simulated gastric fluid (PION UV probe); assay type: physicochemical; settings: only simulated gastric fluid (SGF) pH 1.8, no polymer; 2 hours, 272 nm
Method: FIG. 3—Several anti-nucleating polymers were assessed for ability to maintain the compound of Formula (I) in an in vitro screen.
In an attempt to improve the bioavailability of the compound of Formula (I) in animals administered in the fed state, anti-nucleating agents were added to the pharmaceutical composition to decrease the potential for crystallization of the compound. Several anti-nucleation polymers were assessed for ability to maintain the compound of Formula (I) in an in vitro screen. 0.5% solution of each anti-nucleating polymer was prepared in simulated gastric fluid, pH 1.8. 75 uL of 10 mg/mL API in DMSO was added into 5 mL of the 0.5% polymer solution and monitored by PION UV probe for 2 hours at 272 nm. […] When the other polymers were used, the concentration of the compound of Formula (I) was initially maintained but finally was reduced before the 2 hour test was completed.

bioavailability [1]: < 50%
solubility in volatile solvents ([2]; isopropanol, acetone, dichloromethane): low solubility
water solubility ([2]; water): poorly water soluble
concentration of the compound of Formula (I) in control [3]: dropped almost immediately
SMILES: COc1cc(Nc2nn([C@H]3COCC[C@@H]3C#N)cc2C(N)=O)cc(F)n1 [compound of Formula (I), 1-[(3R,4S)-4-cyanotetrahydropyran-3-yl]-3-[(2-fluoro-6-methoxy-4-pyridyl)amino]pyrazole-4-carboxamide]
suppression of pruritus (cIL-31 induced pruritus): significantly suppressed pruritus
